Assay results as given in patent publication US6686341B1, “Nutritional compositions which contain slightly negatively charged, non-digestible polysaccharides and use thereof for reducing transport through tight junctions” (N.V. Nutricia, priority 1999, dated 2004).

Tested on: tight junctions (duodenum biopsies)
Experiment: Ussing chamber: HRP permeability of duodenum suction biopsies from children suffering from microvillus inclusion disease
Format: cell-based, human
Conditions: after adding 4.2 g to the luminal compartment
Excerpt: Suction biopsies of the duodenum were taken from two children suffering from microvillus inclusion disease.

Substance: carboxydextran [70 kD carboxydextran]
- HRP in the paracellular spaces or tight junctions by electron microscopy: No further HRP could be detected
